Assays:
[1] = target: T1, glutathione S-transferase (GST) (Schistosoma japonicum, UniProt P08515); experiment: Bead pull-down of compound 2 beads with GST as off-target control; format: binding; settings: GST 1 μM, stained with labeled antibody
T1 construct: His6 (C); made in house; host or cells: E. coli BL21 (DE3) codon plus RP

SA-647 = target: T2, SA-647 (Streptomyces avidinii, UniProt P22629); experiment: Pooled bead library screen against SA-647 by FACS with LC-MS hit identification; format: binding; settings: about 50-plex pooled beads, SA-647 500 nM, IP+-modified derivatives
T2 construct: purchased ThermoFisher S3235
Source text: While the one compound per well screening format employed for the Figures and experiments works well, it will limit throughput for the analysis of much larger fragment libraries in the future. […] A photocleavable linker was placed between the fragment and the bead (Figure a). Beads displaying compounds 2, 3, and the oxazole analog of compound 2 were also constructed with the same architecture. Beads displaying all of these compounds were then mixed together in a single Mobicol tube (approximately 25,000 of each bead type).
The resin was incubated with SA-647 (500 nM, 300 μL) for 1 h at room temperature with gentle rotation.
Prior to releasing the compounds from the resin for analysis, we “clicked” a brominated imidazopyridinium unit (IP^+) to the alkyne unit in the linker of these beads via copper-catalyzed azide–alkyne cycloaddition (Figure a,c insert). This was done for three reasons. The first was to add a chromophore to molecules so that, after release from the beads, they could be detected sensitively using a UV detector on the LC trace. […]
After attachment of the IP^+ tag, the beads were washed with a 1:1 mixture of DMF and DCM and irradiated at 365 nm (4.5 × 10^3 μJ cm^–2) for 1 h in a 3:1 DCM/MeOH mixture to release the ligands from the beads. After evaporation of solvents, the eluate was redissolved in water and analyzed by LC-MS. […]

T1 sequence (P08515 whole entry): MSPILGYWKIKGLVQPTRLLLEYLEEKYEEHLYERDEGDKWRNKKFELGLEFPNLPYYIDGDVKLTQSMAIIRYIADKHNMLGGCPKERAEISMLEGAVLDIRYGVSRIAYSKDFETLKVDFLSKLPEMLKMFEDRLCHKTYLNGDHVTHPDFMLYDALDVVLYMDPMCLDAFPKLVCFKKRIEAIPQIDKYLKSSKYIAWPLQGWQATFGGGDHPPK
T2 sequence (P22629 37-163 limits assumed): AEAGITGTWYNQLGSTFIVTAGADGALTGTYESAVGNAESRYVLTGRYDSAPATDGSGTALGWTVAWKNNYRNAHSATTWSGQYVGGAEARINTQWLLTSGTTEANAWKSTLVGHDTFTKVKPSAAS

Compound: CC(=O)N(Cc1cccnc1)Cc1nc(C(=O)N(C)CC(=O)NCCOCCOCC(=O)NCC(N)=O)cs1 [Compound 2]
- binding of GST to bead-displayed compound [1]: No detectable signal
- recovery in sorted hit pool (LC-MS peak) (SA-647): major peak
